pEC50: −log10 of the molar value.
Legend:
[1] = system: neurons from hippocampi of E18 rat embryos; assay: Neurite growth length (% NTL) in cultured E18 rat hippocampal neurons, 9-point dose response, 48 hours; type: cell-based; details: Rattus norvegicus, Neuron, 48 h; for activity at 0.078 µM: 78 nM; for activity at 0.156 µM: 156 nM; for activity at 0.312 µM: 312 nM; for activity at 0.625 µM: 625 nM
Description: PRE-COATING CULTURE PLATES: On the day before the experiment, 96-well plates were pre-coated by plating 50 μl of Poly-D-lysine solution (PDL, 0.5 mg/mL) in each well. The next morning, the plates were washed four or five times with HBSS or PBS (150 μl/rinse), then left in buffer until cell plating
PREPARING THE CELLS: A timed pregnant rat carrying E18 embryos was euthanized using an IACUC approved method. In a laminar flow hood, the embryos were removed and placed in a petri dish containing Hank's Balanced Salt Solution (HBSS) with 20 mM HEPES, pH 7.3. Pup brains were dissected (see Meberg et al., 2003) and hippocampi were collected in 15 mL a conical tube containing Hibernate E with SM1 (2% v/v).
Dissociation media was prepared by combining 4.5 mL of Hibernate E (without SM1) with 0.5 mL of trypsin and 100 μl of DNAse solution. The medium over the hippocampi was carefully removed and replaced with dissociation solution, then incubated at 37° C. for 15-20 minutes, occasionally swirling the tube.
Using flame polished cotton plugged Pasteur pipettes, the dissociation media was removed, and then 5 mL of Hibernate E containing SM1 were added. The tube was swirled to thoroughly wash the tissue. The tissue was allowed to settle to the bottom of the tube, and the rinse solution was carefully removed. This step was repeated 5 times to dilute out trypsin and DNAse and remove any debris from lysed cells.
The final rinse media was removed from the tube and 1 pipette-full (1-2 mL) of Hibernate E with SM1 was added. Using the flame-polished Pasteur pipette (pre-wetted with rinse media), the tube was triturated until all cells had dissociated and no visible chunks of tissue remained. Fewer than ten triturations were typically performed. The volume was adjusted to 8-12 mL using Hibernate E containing SM1, the well was mixed and cell concentration was determined.
PLATING: The cells were diluted in culture media (NbActiv4 Cell-culture media) to a final concentration of 10,000 cells/mL. The HBSS was aspirated from PDL coated plates, and 150 μL of cell solution was loaded in the middle 48 wells at 1500 cells per well. Water was loaded in the outer wells to decrease evaporation from edge wells. Cells were allowed to adhere for 2 hours in tissue culture incubator prior to treatment.
TREATMENT: Compounds were diluted to various concentrations to provide 9 dose response concentrations of 20 μM, 10 μM, 5, μM, 2.5 μM, 1.25 μM, 0.625 μM, 0.3125 μM, 0.15625 μM, and 0.078125 μM. The plates were cultured for 48 hours, exposed to the compound at the various dose response concentrations.
FIXING THE CULTURES: The culture medium was removed from the plates and immediately replaced with 100-200 μl of warm (37° C.) 4% paraformaldehyde (PFA) solution in phosphate-buffered saline (PBS). The cells were fixed for 15-20 minutes at room temperature, and then rinsed with PBS (200 μl/well×3).
STAINING AND IMAGING: The PBS was removed and replaced with 100 μl of blocking/permeabilization buffer (PBS, 0.2% fish gelatin, 0.03% Triton X-100, 0.02% NaN3), then incubated overnight at 4° C. To this was added 100 μl of primary antibody solution (mouse anti-Beta III tubulin in blocking buffer) and incubate overnight at 4° C. The wells were rinsed with PBS (200 μl×3), which was then removed and replaced with 100 μl of secondary antibody solution (Goat anti-mouse Alexa 488, 10 μg/ml Hoechst 33342, 0.2% fish gelatin, 0.02% azide, in PBS). The plate was shaken gently on a rotating shaker for 2 hours, then rinsed with PBS (200 μl×5).
The plate was imaged using a Cellomics ArrayScan VTI in 2 different channels for nuclear staining (Hoechst) and cell body/neurite staining (βIII-tubulin). Typically, nine fields per well were imaged with a 5× objective and automatically traced by the Neuronal Profiling Bioapplication. To get reproducible results, at least 200-300 valid neurons were measured per condition. […]

Primary Neurons = assay: HCS neurite outgrowth assay (High Content Screening with Primary Neurons); type: cell-based; details: Primary neuron

Compound	activity at 0.078 µM [1] [%]	activity at 0.156 µM [1] [%]	activity at 0.312 µM [1] [%]	activity at 0.625 µM [1] [%]	activity at 1.25 µM [1] [%]	activity at 2.5 µM [1] [%]	activity at 5 µM [1] [%]	activity at 10 µM [1] [%]	activity at 20 µM [1] [%]	pEC50 (Primary Neurons)
O=C(N[C@@H]1CCCC[C@H]1NC(=O)c1ccc(C(=O)c2ccccc2)cc1)c1ccncc1 [Example A19, N-[(1R,2R)-2-(4-benzoylbenzamido)cyclohexyl]pyridine-4-carboxamide]	90.1	93.7	68.7	75	75.7	78.5	79.4	87.4	91.2	5.65
COc1ccc(OC)c(C(=O)c2ccc(C(=O)N[C@@H]3CCCC[C@H]3NC(=O)c3ccncc3)cc2)c1F [Example A21, N-[(1R,2R)-2-[4-(2-fluoro-3,6-dimethoxybenzoyl)benzamido]cyclohexyl] pyridine-4-carboxamide]	84.7	83.3	79.8	81.8	86.8	91.5	102	107	108	5.54
COc1ccc(O)c(C(=O)c2ccc(C(=O)N[C@@H]3CCCC[C@H]3NC(=O)c3ccncc3)cc2)c1F [Example A22]	89.3	91.8	92.3	86.2	85.5	85.5	88.7	91.1	94.7	5.58
O=C(N[C@@H]1CCCCC[C@H]1NC(=O)c1ccc(C(=O)c2ccccc2)cc1)c1ccncc1 [Example A23, N-[(1R,2R)-2-(4-benzoylbenzamido)cycloheptyl]pyridine-4-carboxamide]	98.3	102	95.6	93.6	97	101	105	117	144	4.77
COc1ccc(OC)c(C(=O)c2ccc(C(=O)N[C@@H]3CCCCC[C@H]3NC(=O)c3ccncc3)cc2)c1F [Example A24, N-[(1R,2R)-2-[4-(2-fluoro-3,6-dimethoxybenzoyl)benzamido]cycloheptyl] pyridine-4-carboxamide]	96.3	96.8	93.4	96.9	91.8	101	114	131	169	4.79
COc1ccc(O)c(C(=O)c2ccc(C(=O)N[C@@H]3CCCCC[C@H]3NC(=O)c3ccncc3)cc2)c1F [Example A25, N-[(1R,2R)-2-[4-(2-fluoro-6-hydroxy-3-methoxybenzoyl)benzamido]cycloheptyl] pyridine-4-carboxamide]	98.9	97.5	110	111	120	122	134	146	163	< 4.70
COc1ccc(OC)c(C(=O)c2ccc(C(=O)NCCNC(=O)c3ccncc3)cc2)c1F [Example A26, 4-(2-fluoro-3,6-dimethoxybenzoyl)-N-{2-[(pyridin-4-yl)formamido]ethyl}benzamide]	93.3	99.2	94.2	99.3	93.5	99.9	102	97.8	117	< 4.70
COc1ccc(O)c(C(=O)c2ccc(C(=O)NCCNC(=O)c3ccncc3)cc2)c1F [Example A27, 4-(2-fluoro-6-hydroxy-3-methoxybenzoyl)-N-{2-[(pyridin-4-yl)formamido]ethyl}benzamide]	103	101	107	118	110	105	117	141	150	5.10
COc1ccc(OC)c(C(=O)c2ccc(C(=O)O[C@@H]3CN(C)C[C@H]3NC(=O)c3ccncc3)cc2)c1F [Example A28, (3R,4R)-1-methyl-4-(pyridine-4-amido)pyrrolidin-3-yl 4-(2-fluoro-3,6-dimethoxybenzoyl)benzoate]	97.8	113	103	83.7	103	118	133	137	139	5.33
COc1ccc(OC)c(C(=O)c2ccc(C(=O)O[C@@H]3CCN(C)C[C@H]3NC(=O)c3ccncc3)cc2)c1F [Example A30, (3R,4R)-1-methyl-3-(pyridine-4-amido)piperidin-4-yl 4-(2-fluoro-3,6-dimethoxybenzoyl)benzoate]	93.1	89.7	90.5	83.5	93.8	94.8	103	107	117	5.31
COc1ccc(O)c(C(=O)c2ccc(C(=O)O[C@@H]3CCNC[C@H]3NC(=O)c3ccncc3)cc2)c1F [Example A31, (3R,4R)-3-(pyridine-4-amido)piperidin-4-yl 4-(2-fluoro-6-hydroxy-3-methoxybenzoyl)benzoate]	122	120	118	115	136	140	151	142	137	5.94
COc1ccc(OC)c(C(=O)c2ccc(C(=O)N[C@@H]3CN(C)C[C@H]3NC(=O)c3ccncc3)cc2)c1F [Example A33, N-[(3R,4R)-4-[4-(2-fluoro-3,6-dimethoxybenzoyl)benzamido]-1-methylpyrrolidin-3-yl]pyridine-4-carboxamide]	108	106	99.3	107	115	129	142	159	207	< 4.70
COc1ccc(O)c(C(=O)c2ccc(C(=O)N[C@@H]3CNC[C@H]3NC(=O)c3ccc4c(c3)CC(=O)N4)cc2)c1F [Example A35, N-[(3R,4R)-4-[4-(2-fluoro-6-hydroxy-3-methoxybenzoyl)benzamido]pyrrolidin-3-yl]-2-oxo-2,3-dihydro-1H-indole-5-carboxamide]	91.8	90.1	86.3	89.3	86.9	95	97.2	96.7	107	6.79

From patent US11926613B2, “Kinase inhibitors for the treatment of central and peripheral nervous system disorders” (UNIVERSITY OF MIAMI, priority 2017, dated 2024)
